Reference: BigSolDB 2.1

O=C(O)c1cc([N+](=O)[O-])cc([N+](=O)[O-])c1
solubility (mole fraction)
Settings	283.15 K	288.15 K	293.15 K	298.15 K	303.15 K	308.15 K	313.15 K	318.15 K	323.15 K
in acetonitrile	0.00815	0.00958	0.011	0.0129	0.0148	0.0162	0.019	0.0218	0.0236
in ethanol	0.0264	0.0306	0.0346	0.0396	0.0456	0.0524	0.0593	0.07	0.078
in ethyl acetate	0.0349	0.0373	0.0399	0.0426	0.0458	0.0495	0.0533	0.0574	0.0627
in isobutanol	0.00648	0.00862	0.0129	0.0171	0.0223	0.0265	0.031	0.0376	0.0466
in isopropanol	0.014	0.0167	0.0194	0.0255	0.0315	0.0381	0.0459	0.0548	0.0661
in methanol	0.0321	0.0399	0.0454	0.0502	0.059	0.0669	0.0767	0.0843	0.0943
in methyl acetate	0.0378	0.0413	0.0456	0.0498	0.054	0.0582	0.0623	0.0664	0.0713
in n-butanol	0.0138	0.0163	0.0214	0.0273	0.0329	0.0386	0.0458	0.0537	0.0622
in n-butyl acetate	0.0257	0.0262	0.0281	0.0327	0.0341	0.04	0.0451	0.0504	0.0562
in n-pentanol	0.0153	0.0173	0.0223	0.0273	0.0321	0.0379	0.0456	0.0531	0.0604
in n-propanol	0.0173	0.019	0.0224	0.0274	0.0332	0.0397	0.0457	0.0549	0.065
in n-propyl acetate	0.0281	0.0296	0.0318	0.0354	0.04	0.0443	0.0494	0.0548	0.0609
in sec-butanol	0.0139	0.0159	0.0201	0.0263	0.0324	0.0414	0.0503	0.0628	0.0777
